In test [1] the test system is S. flexneri 2a 301 phoQ/phoP knock-out mutant (Sf301 ΔphoQ/phoP). Kind of test: Gentamicin protection assay, HeLa cell invasion by phoQ/phoP knock-out mutant. The following applies: HeLa cells; for cell invasion rate of Sf301 ΔphoQ/phoP: untreated mutant 0.069; for effect on cell invasion of Sf301 phoQ/phoP knock-out mutant: Figure 6C. Type of test: cell-based. Here is the method:
(§1) Bacterial ability to invade HeLa cells was tested with a gentamicin protection assay. HeLa cells were grown in six-well tissue culture plates to semi-confluent monolayers (DMEM, 10% FCS, 5% CO2). Sf9380 or Sf301 ΔphoQ/phoP was treated with potential PhoQ inhibitors for 8 hours in LB at 37°C (final concentrations of 100,50,25,12.5 or 6.25 µmol/L) prior to infection. The bacteria pre-treated with potential PhoQ inhibitor without washing, were added to semi-confluent HeLa cells at a multiplicity of infection of 100, at the same time the bacteria were diluted and plated onto LB agar plates. The CFUs were counted as initial bacterial number before added into HeLa cells. Then the plates were centrifuged at 900×g for 5 minutes. After incubating at 37°C for 60 minutes (For testing intracellular growth and spreading to adjacent cell, cells were further incubated for 290 min [9].), the cells were washed three times with PBS, and gentamicin was added to the medium to a final concentration of 10 µg/ml for 20 minutes at 37°C. After the incubation, the HeLa cells in each well were lysed in 1 ml of PBS containing 0.1% Triton X-100 for 10 minutes at room temperature. The lysates were diluted and plated onto LB agar plates in triplicate. Colonies grown on LB plates were counted. The results of the assays were expressed as the number of bacteria recovered from gentamicin-treated cells divided by the number of inoculated bacteria added to the cell. The cells were inoculated with untreated Sf9380 or Sf301 ΔphoQ/phoP (treated without DMSO) as a positive control and E. coli ATCC 25922, an avirulent strain treated without DMSO, as a negative control. DMSO is the solvent of the potential PhoQ inhibitor compounds; therefore, Sf9380 was also treated with the same amount of 0.1% DMSO as the other groups to control for any DMSO-specific effects. The cell invasion assay was performed in triplicate for each potential PhoQ inhibitor, and the assay was repeated twice.

The test system of the next test is S. flexneri Sf9380. Put plainly: Gentamicin protection assay, HeLa cell invasion by Sf9380. Type of test: cell-based. The conditions noted are these: for invasion of HeLa cells by Sf9380 (bacteria recovered / inoculated): bacteria pre-treated 8 hours, untreated Sf9380 5.87×10^−2. Here is the method: The growth curve of Sf9380 treated with or without potential PhoQ inhibitors at concentration 200 µmol/L were tested. […] The gentamicin protection assay was used as a cellular model to evaluate the inhibitory effect of the four potential PhoQ inhibitors. The bacteria were treated with each of the four potential PhoQ inhibitors in a serial dilution and grown for 8 hours. Next, the bacteria were inoculated and incubated with HeLa cells for 60 min prior to the addition of gentamicin to kill extracellular bacteria. For testing intracellular growth and spreading to adjacent cell, cells were further incubated for 290 min [9]. The results of the assays were expressed as the number of bacteria recovered from gentamicin-treated cells divided by the number of inoculated bacteria added to the cell. After lysates of HeLa cells were plated, the number of CFU that formed on LB agar were counted.
Figure 6 The effects of potential PhoQ inhibitors on virulence of Shigella. […] The bacteria pre-treated with potential PhoQ inhibitor were added to HeLa cells at a multiplicity of infection of 100. Then gentamicin was added to kill extracellular bacteria and cell lysates were plated onto LB plates, and the colonies were counted. The results of the assays were expressed as the number of bacteria recovered from gentamicin-treated cells divided by the number of inoculated bacteria added to the cell. S. flexneri Sf9380 (treated without DMSO), a clinical strain with strong virulence, served as the positive control for the cell invasion assay; E. coli ATCC 25922 (treated without DMSO), an avirulent strain, served as the negative control for the cell invasion assay; bacteria treated with 0.1% DMSO (the solvent of the potential PhoQ inhibitor) also served as a control for the cell invasion assay. Values are means ± standard deviations from 6 independent wells. *p<0.01 vs. Sf9380. (A) The effects of potential PhoQ inhibitors on cell invasion of S. flexneri Sf9380 (B) The effects of potential PhoQ inhibitors on intracellular growth S. flexneri Sf9380. (C) The effects of potential PhoQ inhibitors on cell invasion of S. flexneri 2a 301 phoQ/phoP knock-out mutant.
as §1, with “DMSO is the solvent of the potential PhoQ inhibitor compounds; therefore, Sf9380 was also treated with the same amount of 0.1% DMSO as the other groups to control for any DMSO-specific effects. The cell invasion assay was performed in triplicate for each potential PhoQ inhibitor, and the assay was repeated twice.” left out

Each structure is given as a SMILES string.

For `O=C(O)c1ccc(Cl)c(-c2ccc(/C=N/NC(=O)c3ccc(Br)cc3)o2)c1` [Compound 3], the “cell invasion rate of Sf301 ΔphoQ/phoP” value in test [1] (100 µmo/L) is 0.083. For the same compound, the “effect on cell invasion of Sf301 phoQ/phoP knock-out mutant” value in test [1] is on record as “no obvious effects”. The “invasion of HeLa cells by Sf9380 (bacteria recovered / inoculated)” value in the test on S. flexneri Sf9380 (100 µmo/L) was 1.95×10^−2. Besides, the “effect on invasion of HeLa cells by Sf9380” value (“effect on invasion” below) with S. flexneri Sf9380 (concentrations lower than 100 µmo/L) was “no obvious effects”.
On to `CCOc1ccccc1-c1cc(C(=O)N/N=C/c2ccc(OCc3ccccc3)c(OC)c2)c2ccccc2n1` [Compound 2], for which the “cell invasion rate of Sf301 ΔphoQ/phoP” value in test [1] (25 µmo/L) is listed as 0.102. For the same compound, the “effect on cell invasion of Sf301 phoQ/phoP knock-out mutant” value in test [1] is “no obvious effects”. Also, in the test with S. flexneri Sf9380 (25 µmo/L, HeLa cells), the “times lower invasion than the control” value is recorded as 16.3 times. The “effect on invasion” value in the test with S. flexneri Sf9380 (concentrations lower than 25 µmo/L) is given as “no obvious effects”.
On to `O=C(Nc1ccc(C2(c3cccc(NC(=O)c4cccc5ccccc45)c3)c3ccccc3C(=O)c3ccccc32)cc1)c1ccc2ccccc2c1` [Compound 1], for which, in test [1] (12.5 µmo/L), the “cell invasion rate of Sf301 ΔphoQ/phoP” value stood at 0.064. Besides, the “effect on cell invasion of Sf301 phoQ/phoP knock-out mutant” value in test [1] was “no obvious effects”. Further, the “times lower invasion than untreated Sf9380” value in the test with S. flexneri Sf9380 (12.5 µmo/L, HeLa cells) is listed as 4.3 times. Also, in the test on S. flexneri Sf9380 (12.5 µmo/L), the “invasion of HeLa cells by Sf9380 (bacteria recovered / inoculated)” value is reported as 1.36×10^−2. Moreover, the “effect on invasion” value in the test with S. flexneri Sf9380 (concentrations lower than 12.5 µmo/L) is given as “no obvious effects”.
In the case of `O=C(O)c1cc(-c2ccc(-c3ccccc3Cl)o2)nc2ccc3ccccc3c12` [Compound 4], the “cell invasion rate of Sf301 ΔphoQ/phoP” value in test [1] (100 µmo/L) amounted to 0.053. Besides, the “effect on invasion” value with S. flexneri Sf9380 (100 µmo/L) was “no effect”.
